# From patent US12357591B2 (Nova Southeastern University, priority 2018, dated 2025)
# How the values were obtained:
# [1] = between pH 4 to 5, first 2 min
# Method: Aliquot samples were withdrawn at specific time intervals including 2 (maximum expected time for sublingual administration), 4, 6, 10, 15, and 30 min.
# [2] = cited from earlier work
# [3] = Epinephrine permeability with alkalizing agent and penetration enhancer, Franz cells; assay type: in vitro ADME, porcine
# Method: EpiBit solution with penetration enhancer and alkalizing agent was added to the donor chamber.
# in vitro [4] = experiment: in vitro
# Method: The volunteer was asked not to eat or drink any acidic, alkaline, or spicy food or beverages and to rinse their mouth before the collection of saliva. The saliva was collected into an ice-bathed beaker and then degased to remove air bubbles and then filtered through 0.45 μm membrane.
# Aliquot samples were withdrawn at specific time intervals including 2, 4, 6, 10, 15, and 30 min.
# in vitro [5] = settings: for Papp at 90 min, 10 mg/mL: pig
# Method: Frozen pig's heads were obtained from local abattoir. Then, they were defrosted at room temperature. The porcine mucosa were excised by dissecting the sublingual mucosa and removing the underlying connective tissue using a scalpel and fine tweezers using established surgical techniques. The excised mucosa were frozen on aluminum foil at −20° C. until used (<4 weeks).
# The sublingual mucosa (floor of the mouth) excised from pigs were used as the diffusion membranes. Mcvilian buffer at various pH was used in the donor cell as a diffusion medium.
# Before each experiment, the mucosal membranes were defrosted at room temperature and mounted between the donor and receptor chambers and clamped using a metal clamp. The receptor chamber that has a magnetic stirrer was filled with the diffusion medium before mounting the membranes and air bubbles were removed after mounting the membranes and before the experiment. The water bath was set at 37° C. for the circulating water in the jacketed Franz Cells. The mounted membranes were equilibrated with the diffusion medium for 30 min from both sides before the experiment and were checked for any leaks.
# Aliquots were withdrawn from the receptor chamber using 6 inch-long needles (Popper & Sons. Inc, New Hyde Park, NYC) and 1 mL syringes at 5, 10, 15, 20, 30, 45, 60, 75, and 90 min. The withdrawn volumes were replaced with fresh medium.
# Samples were transferred to HPLC vials for HPLC analysis according to USP Method.
# [6] = pH of 2 mL water as diffusion medium with pH-modifying excipients; assay type: physicochemical
# [7] = 1.125% (w/v) in 2 mL water, With Epi (20 mg)
# [8] = 1.125% (w/v) in 2 mL water, Without Epi
# [9] = 1.875% (w/v) in 2 mL water, With Epi (20 mg)
# [10] = 1.875% (w/v) in 2 mL water, Without Epi
compound,measurement,setting,value
"CNC[C@H](O)c1ccc(O)c(O)c1 [Epi, Epinephrine]",Epi loss,[1],10-17%
same,optimal pH values for the stability of Epi in aqueous solution,[2],3.0-3.8
same,enhancement of Epi sublingual permeability,[3]; alkalizing agent (pH of diffusion medium around 8) with permeation enhancer like SDS,about 25 fold
same,enhancement of Epi sublingual permeability,"[3]; alkalizing agent or permeation enhancer, each one alone",10- to 11 fold
same,"recovery at 0 min, 5 mg/mL","in vitro [4]; male, human, human saliva",100 ± 0.2%
same,"recovery at 2 min, 5 mg/mL","in vitro [4]; male, human, human saliva",96 ± 0.2%
same,"recovery at 4 min, 5 mg/mL","in vitro [4]; male, human, human saliva",96 ± 0.2%
same,"recovery at 6 min, 5 mg/mL","in vitro [4]; male, human, human saliva",95 ± 0.1%
same,"recovery at 10 min, 5 mg/mL","in vitro [4]; male, human, human saliva",95 ± 0.2%
same,"recovery at 15 min, 5 mg/mL","in vitro [4]; male, human, human saliva",92 ± 0.2%
same,"recovery at 30 min, 5 mg/mL","in vitro [4]; male, human, human saliva",84%
same,stability of Epi in human saliva,in vitro [4]; saliva pH and up to pH 8,stable in human saliva (saliva pH and up to pH 8) for sufficient time to allow for sublingual drug administration
same,AUC0-90 min,in vitro [5]; pH 5,5169 ± 255 μg/cm^2/ min
same,J (influx),in vitro [5]; pH 5,0.4 ± 0.1 μg/cm^2/min
same,AUC0-90 min,in vitro [5]; pH 6,6191 ± 756 μg/cm^2/ min
same,J (influx),in vitro [5]; pH 6,0.8 ± 0.2 μg/cm^2/min
same,AUC0-90 min,in vitro [5]; pH 6.8,46562 ± 3450 μg/cm^2/ min
same,J (influx),in vitro [5]; pH 6.8,2.8 ± 0.2 μg/cm^2/min
same,AUC0-90 min,in vitro [5]; pH 7.4,60099 ± 6576 μg/cm^2/ min
same,J (influx),in vitro [5]; pH 7.4,5.3 ± 0.2 μg/cm^2/min
same,AUC0-90 min,in vitro [5]; pH 8,135689 ± 439 μg/cm^2/ min
same,J (influx),in vitro [5]; pH 8,30.9 ± 0.4 μg/cm^2/min
same,increase of Epi sublingual permeability,in vitro [5]; pH 8 compared to pH 6.8,about 11 fold
same,"Papp at 90 min, 10 mg/mL",in vitro [5]; pH 5,333 ×10⁻⁶ cm/s
same,"Papp at 90 min, 10 mg/mL",in vitro [5]; pH 6,667 ×10⁻⁶ cm/s
same,"Papp at 90 min, 10 mg/mL",in vitro [5]; pH 6.8,2330 ×10⁻⁶ cm/s
same,"Papp at 90 min, 10 mg/mL",in vitro [5]; pH 7.4,4330 ×10⁻⁶ cm/s
"O=C([O-])O.[Na+] [Na Bicarbonate, sodium bicarbonate]",pH Reading,[6]; [7],7.9 ± 0.1
same,pH Reading,[6]; [8],8.9 ± 0.1
same,pH Reading,[6]; [9],7.7 ± 0.0
same,pH Reading,[6]; [10],8.5 ± 0.1
same,pH Reading,"[6]; 2.25% (w/v) in 2 mL water, With Epi (20 mg)",7.9 ± 0.1
same,pH Reading,"[6]; 2.25% (w/v) in 2 mL water, Without Epi",8.6 ± 0.1
Na Citrate,pH Reading,[6]; [7],5.0 ± 0.1
same,pH Reading,[6]; [8],9.4 ± 0.1
same,pH Reading,[6]; [9],7.1 ± 0.1
same,pH Reading,[6]; [10],9.8 ± 0.1
